Source: publication PMC7041945, “Misfolded proteins bind and activate death receptor 5 to trigger apoptosis during unresolved endoplasmic reticulum stress” (eLife, 2020)

Experiments:
GAPDH = test: qPCR of GAPDH (reference transcript); format: cell-based; details: Rep 2
[1] = test system: caspase 8 in HCT116 lysates; test: Caspase 8 activity (caspase glo 8) of cell lysates / IP inputs; format: cell-based, Homo sapiens; details: for fold change in caspase 8 activity relative to GFP / avg fold change in caspase 8 activity relative to GFP: input lysates GFP vs INS vs RHO; for avg fold change in caspase 8 activity relative to GFP: average of Rep1 and Rep2; for Mean ± SEM (lysate inputs): relative to GFP, n=2; for norm RLUs: normalized by lysate quant; for 95% confidence interval of difference (lysate inputs) / Difference between means (lysate inputs): vs. GFP; for average fold change relative to empty: HCT116, rep 1, average of 4 dilutions
Method: Cells harvested from a 6-well plate were resuspended in 100 μl of lysis buffer (30 mM HEPES pH 7.2, 150 mM NaCl, 1% Triton X-100) and lysed via needle shearing (25G, 10 passes) followed by a 30 min incubation on ice. Supernatant was collected after centrifuging at 1000xg for 5 min. For the caspase activity assay, 10 μl of supernatant diluted with lysis buffer (1:25, 1:50, 1:100 to stay within linear range of luminescence measurements) was incubated with 10 μl of the luminogenic caspase glo 8 substrate (Promega #PRG8200) in a 384-white walled plate (Corning 3574) for 45 min at RT before measuring luminescence on a Spectramax-M5 plate reader.

DR5 = test: GFP immunoprecipitation: DR5 (FADD, caspase 8) recovered with GFP-tagged protein, Western blot; format: cell-based, Homo sapiens; details: for fraction of DR5 IP'ed: GFP IP; for % IP'ed / fraction IP'ed, average: average of all replicates; for Mean ± SEM (fraction IP'ed): unpaired t test sheet, GFP n=5, MPZ n=3, INS n=2, RHO n=2; for 95% confidence interval (difference between means) / Difference between means: vs. GFP, fraction IP'ed; for Difference between means: ± SEM
Method: 15 cm dishes were seeded with 4 million HCT116 cells and allowed to recover for 18 hr prior to transfection. Samples were then transfected for 24 hr with the GFP-tagged ER trafficked protein, cytosolic GFP, or empty vector. To harvest apoptotic and living cells for each sample, all media and washes were collected. Cells were scraped in 2 ml of cold PBS and combined with the media and washes. Samples were centrifuged to pellet cells, washed with 1 ml cold PBS, and flash frozen in liquid N2 prior to lysis.
The cell pellets were resuspended in 750 μl of 30 mM HEPES pH 7.2, 150 mM NaCl, 1% Triton X-100 with 1x Roche protease inhibitor cocktail (if used subsequently for caspase glo 8 assay) or with 5x Roche protease inhibitor cocktail (if used for immunoblotting). The cells were lysed by mechanical shearing through a 25G needle for 13–15 plunges followed by incubation on ice for 30 min. The lysate was centrifuged at 2000xg for 5 min to remove debris and then incubated with 30 μl of GFP-Trap magnetic agarose beads (Chromotek gtma-20) for 4 hr at 4°C. The beads were then washed with 750 μl of lysis buffer for 10 min at 4°C for three rounds.
For Western blots, samples were eluted by adding 35 μl of non-reducing SDS gel loading buffer (50 mM Tris-HCl (pH 6.8), 2% SDS, 0.1% bromophenol blue, 10% glycerol) and incubated for 10 min at 70°C. The beads were then magnetically removed from the eluted sample before adding DTT to a final concentration of 25 mM. The entire sample was loaded onto the gel and immunoblotted for DR5, caspase 8, and GFP, in that order.

HCT116 cells = test: Annexin V (and SytoxBlue) flow cytometry for apoptosis; format: cell-based, Homo sapiens; details: for PARP cleavage and annexin V staining: HCT116, transfected 24 hr, Nt or DR5 siRNA; for Mean ± SEM (siDR5), Annexin V / Mean ± SEM (siNt), Annexin V: N=3; for 95% confidence interval of difference, Annexin V / Difference between means, Annexin V: siDR5 vs. siNt
Method: Cells seeded in a 6-well plate were transfected with the specified plasmid for 24 hr and harvested via trypsinization in complete media to allow a 30 min recovery at 37°C. The samples were then centrifuged at 500xg for 5 min and resuspended In 150 μl of a 1:20 dilution of Annexin V-AlexaFluor 647 conjugate (Thermo Scientific #A23204). Samples were transferred to a 96-well U-bottom plate and incubated in the dark for 15 min at RT. The distribution of apoptotic cells was determined by flow cytometry on a BD LSR II.

## INS-GFP: GFP-tagged proinsulin expressed from plasmid
GAPDH; 3 hr, mean of 3 replicates
  Cq GAPDH: 19.1619
GAPDH; 3 hr, relative to empty traffo, mean of 3 replicates
  avg. fold induction GAPDH: 1
GAPDH; 3 hr, relative to empty traffo, replicate 1
  fold induction GAPDH: 0.8888
GAPDH; 3 hr, relative to empty traffo, replicate 2
  fold induction GAPDH: 1.06
GAPDH; 3 hr, relative to empty traffo, replicate 3
  fold induction GAPDH: 1.051
GAPDH; 3 hr, replicate 1
  2^-(deltaCq) GAPDH: 0.8916
  Cq GAPDH: 19.3274
  Cq(sample) - avg Cq(GAPDH), GAPDH: 0.1655
GAPDH; 3 hr, replicate 2
  2^-(deltaCq) GAPDH: 1.064
  Cq GAPDH: 19.0729
  Cq(sample) - avg Cq(GAPDH), GAPDH: -0.08892
GAPDH; 3 hr, replicate 3
  2^-(deltaCq) GAPDH: 1.055
  Cq GAPDH: 19.0852
  Cq(sample) - avg Cq(GAPDH), GAPDH: -0.07662
GAPDH; 7 hr, mean of 3 replicates
  Cq GAPDH: 19.3003
GAPDH; 7 hr, relative to empty traffo, mean of 3 replicates
  avg. fold induction GAPDH: 1.004
GAPDH; 7 hr, relative to empty traffo, replicate 1
  fold induction GAPDH: 0.8393
GAPDH; 7 hr, relative to empty traffo, replicate 2
  fold induction GAPDH: 1.091
GAPDH; 7 hr, relative to empty traffo, replicate 3
  fold induction GAPDH: 1.082
GAPDH; 7 hr, replicate 1
  2^-(deltaCq) GAPDH: 0.842
  Cq GAPDH: 19.5485
  Cq(sample) - avg Cq(GAPDH), GAPDH: 0.2482
GAPDH; 7 hr, replicate 2
  2^-(deltaCq) GAPDH: 1.094
  Cq GAPDH: 19.1708
  Cq(sample) - avg Cq(GAPDH), GAPDH: -0.1295
GAPDH; 7 hr, replicate 3
  2^-(deltaCq) GAPDH: 1.086
  Cq GAPDH: 19.1817
  Cq(sample) - avg Cq(GAPDH), GAPDH: -0.1186
GAPDH; 24 hr, mean of 3 replicates
  Cq GAPDH: 19.7046
GAPDH; 24 hr, relative to empty traffo, mean of 3 replicates
  avg. fold induction GAPDH: 1.006
GAPDH; 24 hr, relative to empty traffo, replicate 1
  fold induction GAPDH: 0.8281
GAPDH; 24 hr, relative to empty traffo, replicate 2
  fold induction GAPDH: 1.042
GAPDH; 24 hr, relative to empty traffo, replicate 3
  fold induction GAPDH: 1.149
GAPDH; 24 hr, replicate 1
  2^-(deltaCq) GAPDH: 0.8307
  Cq GAPDH: 19.9722
  Cq(sample) - avg Cq(GAPDH), GAPDH: 0.2676
GAPDH; 24 hr, replicate 2
  2^-(deltaCq) GAPDH: 1.045
  Cq GAPDH: 19.6413
  Cq(sample) - avg Cq(GAPDH), GAPDH: -0.06334
GAPDH; 24 hr, replicate 3
  2^-(deltaCq) GAPDH: 1.1521
  Cq GAPDH: 19.5004
  Cq(sample) - avg Cq(GAPDH), GAPDH: -0.2043
[1]; Rep1
  fold change in caspase 8 activity relative to GFP: 2.597 fold
[1]; Rep2
  fold change in caspase 8 activity relative to GFP: 2.0013 fold
[1]
  avg fold change in caspase 8 activity relative to GFP: 2.299 fold
  Mean ± SEM (lysate inputs): 2.299 ± 0.2977, n=2
  95% confidence interval of difference (lysate inputs): 0.01818 to 2.580
  Difference between means (lysate inputs): 1.299 ± 0.2977
[1]; rep 2, dilution 0.025
  norm RLUs: 1827.1 RLUs
[1]; rep 2, dilution 0.05
  norm RLUs: 3654.19 RLUs
[1]; rep 2, dilution 0.1
  norm RLUs: 8264.86 RLUs
DR5; sheet 2018-04-13 rep 2
  fraction of DR5 IP'ed: 0.03271
DR5; sheet 2018-09-20 rep 1
  fraction of DR5 IP'ed: 0.01265
DR5; Rep 1 (second series)
  fraction IP'ed: 0.03271
DR5; Rep 2 (second series)
  fraction IP'ed: 0.01265
DR5
  % IP'ed: 2.268%
  fraction IP'ed, average: 0.02268
  Mean ± SEM (fraction IP'ed): 0.02268 ± 0.01003, n=2
  95% confidence interval (difference between means): -0.02195 to 0.04688
  Difference between means: 0.01247 ± 0.01339
HCT116 cells
  PARP cleavage and annexin V staining: induced PARP cleavage and annexin V staining in a DR5-dependent manner
  Mean ± SEM (siDR5), Annexin V: 19 ± 1.7 N=3
  95% confidence interval of difference, Annexin V: -25 to -8.3
  Difference between means, Annexin V: -17 ± 2.9
  Mean ± SEM (siNt), Annexin V: 35 ± 2.4 N=3

## RHO-GFP: GFP-tagged rhodopsin expressed from plasmid
GAPDH; 3 hr, mean of 3 replicates
  Cq GAPDH: 19.7379
GAPDH; 3 hr, replicate 1
  2^-(deltaCq) GAPDH: 0.8551
  Cq GAPDH: 19.9638
  Cq(sample) - avg Cq(GAPDH), GAPDH: 0.2259
GAPDH; 3 hr, replicate 2
  2^-(deltaCq) GAPDH: 1.128
  Cq GAPDH: 19.5639
  Cq(sample) - avg Cq(GAPDH), GAPDH: -0.174
GAPDH; 3 hr, replicate 3
  2^-(deltaCq) GAPDH: 1.0366
  Cq GAPDH: 19.686
  Cq(sample) - avg Cq(GAPDH), GAPDH: -0.05187
GAPDH; 3 hr, vs 24 hr cytoGFP (empty traffo), mean of 3 replicates
  avg. fold induction GAPDH: 1.004
GAPDH; 3 hr, vs 24 hr cytoGFP (empty traffo), replicate 1
  fold induction GAPDH: 0.8525
GAPDH; 3 hr, vs 24 hr cytoGFP (empty traffo), replicate 2
  fold induction GAPDH: 1.125
GAPDH; 3 hr, vs 24 hr cytoGFP (empty traffo), replicate 3
  fold induction GAPDH: 1.034
GAPDH; 7 hr, mean of 3 replicates
  Cq GAPDH: 19.658
GAPDH; 7 hr, replicate 1
  2^-(deltaCq) GAPDH: 0.7732
  Cq GAPDH: 20.029
  Cq(sample) - avg Cq(GAPDH), GAPDH: 0.371
GAPDH; 7 hr, replicate 2
  2^-(deltaCq) GAPDH: 1.046
  Cq GAPDH: 19.5931
  Cq(sample) - avg Cq(GAPDH), GAPDH: -0.06483
GAPDH; 7 hr, replicate 3
  2^-(deltaCq) GAPDH: 1.236
  Cq GAPDH: 19.3518
  Cq(sample) - avg Cq(GAPDH), GAPDH: -0.3062
GAPDH; 7 hr, vs 24 hr cytoGFP (empty traffo), mean of 3 replicates
  avg. fold induction GAPDH: 1.016
GAPDH; 7 hr, vs 24 hr cytoGFP (empty traffo), replicate 1
  fold induction GAPDH: 0.7709
GAPDH; 7 hr, vs 24 hr cytoGFP (empty traffo), replicate 2
  fold induction GAPDH: 1.043
GAPDH; 7 hr, vs 24 hr cytoGFP (empty traffo), replicate 3
  fold induction GAPDH: 1.233
GAPDH; 24 hr, mean of 3 replicates
  Cq GAPDH: 19.018
GAPDH; 24 hr, replicate 1
  2^-(deltaCq) GAPDH: 0.8063
  Cq GAPDH: 19.3286
  Cq(sample) - avg Cq(GAPDH), GAPDH: 0.3107
GAPDH; 24 hr, replicate 2
  2^-(deltaCq) GAPDH: 1.066
  Cq GAPDH: 18.9252
  Cq(sample) - avg Cq(GAPDH), GAPDH: -0.09277
GAPDH; 24 hr, replicate 3
  2^-(deltaCq) GAPDH: 1.163
  Cq GAPDH: 18.8001
  Cq(sample) - avg Cq(GAPDH), GAPDH: -0.2179
GAPDH; 24 hr, vs 24 hr cytoGFP (empty traffo), mean of 3 replicates
  avg. fold induction GAPDH: 1.009
GAPDH; 24 hr, vs 24 hr cytoGFP (empty traffo), replicate 1
  fold induction GAPDH: 0.8039
GAPDH; 24 hr, vs 24 hr cytoGFP (empty traffo), replicate 2
  fold induction GAPDH: 1.063
GAPDH; 24 hr, vs 24 hr cytoGFP (empty traffo), replicate 3
  fold induction GAPDH: 1.16
[1]; siDR5
  average fold change relative to empty: 1.375 fold change
[1]; siNT
  average fold change relative to empty: 3.026 fold change
[1]; Rep1
  fold change in caspase 8 activity relative to GFP: 3.178 fold
[1]; Rep2
  fold change in caspase 8 activity relative to GFP: 3.026 fold
[1]
  avg fold change in caspase 8 activity relative to GFP: 3.102 fold
  Mean ± SEM (lysate inputs): 3.102 ± 0.07579, n=2
  95% confidence interval of difference (lysate inputs): 1.776 to 2.428
  Difference between means (lysate inputs): 2.102 ± 0.07579
[1]; rep 2, average of 3 dilutions
  average fold change relative to GFP: 3.178 fold change
[1]; rep 2, dilution 0.025
  norm RLUs: 2013.77 RLUs
[1]; rep 2, dilution 0.05
  norm RLUs: 4641.15 RLUs
[1]; rep 2, dilution 0.1
  norm RLUs: 10576.5 RLUs
DR5; sheet 2018-04-13 rep 2
  fraction of DR5 IP'ed: 0.05356
DR5; sheet 2018-09-20 rep 1
  fraction of DR5 IP'ed: 0.05459
DR5; Rep 1 (second series)
  fraction IP'ed: 0.05356
DR5; Rep 2 (second series)
  fraction IP'ed: 0.05459
DR5
  % IP'ed: 5.408%
  fraction IP'ed, average: 0.05408
  Mean ± SEM (fraction IP'ed): 0.05408 ± 0.0005162, n=2
  95% confidence interval (difference between means): 0.01226 to 0.07547
  Difference between means: 0.04386 ± 0.01229
HCT116 cells
  PARP cleavage and annexin V staining: induced PARP cleavage and annexin V staining in a DR5-dependent manner
  Mean ± SEM (siDR5), Annexin V: 19 ± 0.033 N=3
  95% confidence interval of difference, Annexin V: -22 to -5.1
  Difference between means, Annexin V: -13 ± 3.0
  Mean ± SEM (siNt), Annexin V: 33 ± 3.0 N=3
